Legend:
[1] = system: rat VEGF164, VEGF120 and bFGF mRNA in peri-infarct area of rat hearts; assay: Rat myocardial infarct (LCAL) model: quantitative RT-PCR of VEGF and bFGF; type: in vivo
Procedure: Female Sprague Dawley rats, approximately 12-weeks of age were used. Rats were anesthetized by intraperitoneal (i.p.) injection of up to 1 ml/kg ketamine/medetomidine (6:4). Following exteriorization of the heart, the left coronary artery was ligated near its origin with a silk suture. In sham surgery control animals, the suture was placed superficially into the muscle adjacent to the coronary artery. Post-closure EKG's were monitored for S-T segment elevation in LCAL animals to confirm the outcome of ligation. Immediately following cardiac surgery, a primed mini-osmotic pump containing relaxin or vehicle (20 mM acetate, pH 5.0) was aseptically implanted into a subcutaneous (s.c.) pocket on the dorsal interscapular region. Vehicle or relaxin (0.1 mg/kg/day) was delivered as a continuous s.c. infusion for 7 or 21 days to either sham or LCAL animals. Animals were terminated on day 7 or 21, and the peri-infarct regions anterior to the scar in the left ventricle, or equivalent sites on sham surgery animals were harvested.
The left coronary artery ligation (LCAL) model of myocardial ischemia in the rat (Selye et al. (1960) Angiology 11:398-407) caused profound, acute damage, involving up to 50% of the left ventricular free wall. Following systemic relaxin treatment, using rhRLX, tissue RNA was examined at 7 and 21 days post-infarction for persistent changes in VEGF and bFGF. Cells in the immediate margins surrounding the infarct were sampled to assess angiogenic cytokine expression, using quantitative RT-PCR analysis. Oligonucleotide primers and TaqMan probes, shown in Table 8, were purchased from BioSource International Inc.(Camarillo, Calif.), or PE Applied Biosystems for use with the ABI Prism^7 7700 Sequence Detection System (quantitative PCR) (PE Applied Biosystems).
Oligonucleotides were designed to rat or human bFGF, human VEGF165 amino acid or 121 amino acid isoforms, and their respective rat homologues (VEGF164 and VEGF120), and human HGF (for use with the PE Applied Biosystems “GeneAmp PCR System 9600”). Rat and human GAPDH primers and probes were purchased from BioSource International Inc. and PE Applied Biosystems, respectively. Tissue samples and monolayer cells were suspended in RNA STAT-60 (Tel-Test, Inc., Friendswood, Tex.) and processed following vendor instructions. Reverse transcription-polymerase chain reaction (RT-PCR) was performed using either rat or human total RNA as template. 150 ng of total RNA was used for the analysis of VEGF, bFGF and HGF mRNA expression; 10 ng of total RNA was used for GAPDH mRNA expression. Reverse transcription-polymerase chain reaction (RT-PCR) reagents were purchased from PE Biosystems (Foster City, Calif.).
RNA was extracted from peri-infarct regions of rat hearts following LCAL or an analogous area of sham hearts. […]

[2] = system: human primary umbilical vein, aortic, foreskin, and pulmonary endothelial cells; assay: 3H-thymidine uptake, human endothelial cells; type: cell-based; details: serum-free medium
Procedure: Endothelial cells were derived from explant cultures of human neonatal foreskin and rat aorta. Primary human endothelial cells from umbilical vein, aorta, and lung were purchased from Clonetics-BioWhittaker Corporation (San Diego, Calif.) and cultured according to vendor instructions. ^3H-thymidine uptake was performed, as previously described, in serum-free medium. Unemori et al. (1994) Exp. Cell Res. 21:166-171.
Relaxin was then assayed for the ability to induce proliferation of endothelial cells directly. Relaxin's potential mitogenic effect was tested on human primary umbilical vein, aortic, foreskin, and pulmonary endothelial cells, as well as rat aortic endothelial cells. […] Alterations in other aspects of endothelial cell phenotype that are believed to correlate with angiogenesis were also tested. Relaxin had no effect on collagen expression, judged by SDS-PAGE of ^3H-proline-labeled cellular proteins; or metalloproteinase or tissue inhibitor of metalloproteinase-1 secretion, assessed by gelatin zymography. […] Therefore, relaxin had no apparent effect directly on endothelial cells.

[3] = system: conscious male rats; assay: 5-day rhRLX infusion in conscious male rats: MAP, renal function, hematocrit, plasma osmolality, sodium; type: in vivo, rat
Procedure: After being placed in the experimental cage, a 100 μl blood sample was drawn from the arterial catheter into a heparinized tube for measurement of baseline plasma osmolality, sodium concentration and hematocrit prior to the administration of any fluids. […] Next, a bolus of inulin (IN, 0.2 ml of a 20% stock solution/100 g BW) and para-aminohippurate (PAH, 0.1 ml of a 2% working solution/100 g BW) was given over 1 minute into the venous catheter followed by a constant infusion of the two reagents at a rate of 0.5 mg/minute per 100 g BW and 0.1 mg/minute per 100 g BW, respectively. The flow rate was 19 μl/minute delivered by a Model 200 Syringe Pump (kd Scientific, Boston Mass.). Finally, the obturator in the bladder catheter was removed, and the latter was extended with a short piece of polyethylene tubing to facilitate the collection of urine.
The technique of urine collection has proven to be reliable. Conrad and Colpoys (1986) J. Clin. Invest. 77:236-245; Danielson and Conrad (1995) J. Clin. Invest. 96:482-490; and Danielson and Conrad (1996) Circ. Res. 79:1161-1166. Indeed, after reaching steady-state in this study, the excretion rates of IN and PAH were 91±3 and 100±4% of their respective infusions. After measuring baseline mean arterial pressure and renal function, an osmotic minipump (model 2ML1, Alza Co., Palo Alto Calif.) containing either recombinant human relaxin (rhRLX; n=12 rats) or vehicle (n=7) was implanted subcutaneously on the back using light ether anesthesia. […] Five days later, mean arterial pressure (MAP), glomerular filtration rate (GFR), effective renal plasma flow (ERPF), and other parameters were again assessed as describe above. At this time, the excretion rates of IN and PAH were 91±3 and 98±2% of their respective infusion rates. At the end of the experiment, 1.0 ml of blood was collected for determination of serum rhRLX.
Inulin concentration in plasma and urine was measured by the anthrone method, and PAH was determined by the method of Bratton and Marshall as modified by Smith. This method is described in Conrad (1984) Kidney Int. 26:24-29, and references cited therein. Plasma sodium was measured by a Kodak Ektachem Instrument (Rochester, N.Y.). Plasma osmolality was determined by freezing point depression (Advanced Osmometer, Model 3MO, Advanced Instruments, Needham Heights Mass.). All urine and plasma samples from MWRI were coded and sent to UNM for analysis of IN, PAH, sodium and osmolality (by L.A.D.). The rhRLX in serum was measured using a quantitative sandwich immunoassay, again in a blinded fashion. Danielson et al. (1999) J. Clin. Invest. 103:525-533.

**Q.** With “rhRLX: recombinant human relaxin, identical in amino acid sequence to the product of the human H2 gene; A chain of 24, B chain of 29 amino acids” as the substance, how does the “increase in peri-infarct bFGF expression (mRNA)” value ([1]; 0.1 mg/kg/day s.c., both 7 and 21 days, vs vehicle-treated infarcted hearts) read?
**A.** 2 fold

**Q.** And the “relative expression of either VEGF isoform, peri-infarct regions” value ([1]; 0.1 mg/kg/day, day 7)?
**A.** no changes

**Q.** What about the “relative levels of VEGF164 and VEGF120 transcripts” value ([1]; 0.1 mg/kg/day, day 21) of the same substance?
**A.** trend towards an increase

**Q.** And the “VEGF or bFGF mRNA expression” value ([1]; sham surgery animals)?
**A.** no effect

**Q.** And the 3H-thymidine uptake [2]?
**A.** did not alter

**Q.** And the “effect on ERPF” value ([3]; 4 μg/hour for 5 days (FIG. 3))?
**A.** significantly increased

**Q.** What about the “effect on ERVR” value ([3]; 4 μg/hour for 5 days (FIG. 3)) of the same substance?
**A.** reducing

**Q.** And the “effect on GFR” value ([3]; 4 μg/hour for 5 days (FIG. 3))?
**A.** significantly increased

**Q.** What about the “effect on MAP” value ([3]; 4 μg/hour for 5 days (FIG. 3)) of the same substance?
**A.** did not significantly affect

**Q.** What about the “HCT (hematocrit), change from the baseline” value ([3]; rhRLX 4 μg/hour for 5 days) of the same substance?
**A.** −5.0 ± 0.6 %

**Q.** What about the “PNa+ (plasma sodium concentration), change from the baseline” value ([3]; rhRLX 4 μg/hour for 5 days) of the same substance?
**A.** −5.3 ± 0.4 mEq/L

**Q.** What about the “Posm (plasma osmolality), change from the baseline” value ([3]; rhRLX 4 μg/hour for 5 days) of the same substance?
**A.** −10.9 ± 1.4 mOsm/kg H2O
